Patent US7585867B2, “Substituted thiazolo[4,5-d]pyrimidin-2(3H)-one” (AstraZeneca AB, priority 2002, dated 2009)

Assays:
[1] = biological target: T1, CXCR2 receptor in human neutrophils (Homo sapiens, UniProt P25025); assay: Intracellular calcium mobilisation assay (GROα, fluo-3, FLIPR); assay type: cell-based; conditions: A50 concentration of GROα, fluo-3 fluorescence
T1 construct: Human nutrophils were prepared from EDTA-treated peripheral blood; endogenous in cells; host or cells: human neutrophils from peripheral blood
T1 sequence (P25025 1-360): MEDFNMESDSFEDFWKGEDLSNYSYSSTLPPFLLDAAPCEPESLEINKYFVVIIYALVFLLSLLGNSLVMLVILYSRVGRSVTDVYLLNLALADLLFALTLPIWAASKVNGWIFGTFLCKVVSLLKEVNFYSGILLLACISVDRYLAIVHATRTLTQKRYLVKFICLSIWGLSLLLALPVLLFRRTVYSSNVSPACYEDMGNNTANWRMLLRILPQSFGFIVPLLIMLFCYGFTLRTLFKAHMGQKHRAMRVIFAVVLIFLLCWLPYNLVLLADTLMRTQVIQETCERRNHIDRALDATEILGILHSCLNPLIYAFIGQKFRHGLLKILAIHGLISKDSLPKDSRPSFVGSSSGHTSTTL
Experimental: Intracellular Calcium Mobilisation Assay
Human nutrophils were prepared from EDTA-treated peripheral blood, as previously described (Baly et al. (1997) Methods in Enzymology 287 pp 70-72), in storage buffer [Tyrode's salt solution (137 mM NaCl, 2.7 mM KCl, 0.4 mM NaH2PO4) supplemented with 5.7 mM glucose and 10 mM HEPES (pH 7.4)].
The chemokine GROα (human, recombinant) was purchased from R&D Systems (Abingdon, U.K.). All other chemicals were of analytical grade. Changes in intracellular free calcium were measured fluorometrically by loading neutrophils with the calcium sensitive fluorescent dye, fluo-3, as described previously (Merritt et al. (1990) Biochem. J. 269, pp513-519). Cells were loaded for 1 hour at 37° C. in loading buffer (storage buffer with 0.1% (w/v) gelatin) containing 5 μM fluo-3 AM ester, washed with loading buffer and then resuspended in Tyrode's salt solution supplemented with 5.7 mM glucose, 0.1% (w/v) bovine serum albumin (BSA), 1.8 mM CaCl2 and 1 mM MgCl2. […]
A compound of formula (I) according to the Examples was pre-dissolved in DMSO and added to a final concentration of 0.1% (v/v) DMSO. Assays were initiated by the addition of an A50 concentration of GROα and the transient increase in fluo-3 fluorescence (λEx=490 nm and λEm=520 nm) monitored using a FLIPR (Fluorometric Imaging Plate Reader, Molecular Devices, Sunnyvale, U.S.A.). […]

[2] = biological target: T2, hrCXCR2 (Homo sapiens, UniProt P25025); assay: Ligand binding assay ([125I]IL-8, HEK 293 membranes); conditions: displacement of ~50 pM [125I]IL-8 from membranes of HEK 293 cells expressing hrCXCR2, 1.5 hours at room temperature
T2 construct: expressed in transfected cells; host or cells: HEK 293 cells (ECACC No. 85120602), membrane preparation
T2 sequence (P25025 1-360): T1 sequence (P25025 1-360)
Excerpt: [^125I]IL-8 (human, recombinant) was purchased from Amersham, U.K. with a specific activity of 2,000 Ci/mmol. All other chemicals were of analytical grade. High levels of hrCXCR2 were expressed in HEK 293 cells (human embryo kidney 293 cells ECACC No. 85120602) (Lee et al. (1992) J. Biol. Chem. 267 pp 16283-16291). hrCXC2 cDNA was amplified and cloned from human neutrophil mRNA. The DNA was cloned into PCRScript (Stratagene) and clones were identified using DNA. The coding sequence was sub-cloned into the eukaryotic expression vector RcCMV (Invitrogen). Plasmid DNA was prepared using Quiagen Megaprep 2500 and transfected into HEK 293 cells using Lipofectamine reagent (Gibco BRL). Cells of the highest expressing clone were harvested in phosphate-buffered saline containing 0.2%(w/v) ethylenediaminetetraacetic acid (EDTA) and centrifuged (200 g, 5 min.). The cell pellet was resuspended in ice cold homogenisation buffer [10 mM HEPES (pH 7.4), 1 mM dithiothreitol, 1 mM EDTA and a panel of protease inhibitors (1 mM phenyl methyl sulphonyl fluoride, 2 μg/ml soybean trypsin inhibitor, 3 mM benzamidine, 0.5 μg/ml leupeptin and 100 μg/ml bacitracin)] and the cells left to swell for 10 minutes. […] The backing plate was removed from the MultiScreen plate assembly, the filters dried at room temperature, punched out and then counted on a Cobra γ-counter.

| melting point | antagonism of GROα-induced intracellular calcium increase [1] | IC50 [2] | Structure (SMILES) |
| --- | --- | --- | --- |
| 238 °C (dec.) |  |  | CC(CO)(CO)Nc1nc(SCc2cccc(F)c2F)nc2[nH]c(=O)sc12.[Na] |
| 230 to 233 °C | antagonist | < 10 µM | CC(CO)(CO)Nc1nc(SCc2cccc(F)c2F)nc2[nH]c(=O)sc12 [compound of formula (I), 5-[[(2,3-Difluorophenyl)methyl]thio]-7-[[2-hydroxy-1-(hydroxymethyl) 1 methylethyl]amino]-thiazolo[4,5-d]pyrimidin-2(3H)-one] |
